# Test results reported in patent publication US20260355199A1, “COMPOSITIONS AND METHODS FOR TREATING OR PREVENTING NONALCOHOLIC STEATOHEPATITIS (NASH), ANOREXIA, DEPRESSION, ENDOMETRIOSIS, AND OTHER DISEASES OR DISORDERS” (priority 2022, published 2026).
# “Also recorded” adds a separate entry of the source.
# Tests used:
# [1] = Liver toxicity after three weeks of once-a-week Bobcat339; assay type: in vivo, mouse
# Experimental: For corticosterone, blood samples were obtained via retroorbital bleeding between 19:00 and 20:00. For alanine transaminase, aspartate transaminase and bilirubin, blood samples were collected by cardiac puncture of terminally anesthetized animals. All blood samples were collected in EDTA tubes (Microtainer with K2EDTA, BD, 365974). The tubes were centrifuged at 2,000×g at 4 °C for 20 min, and plasma was collected and stored at −80 °C until use. Plasma corticosterone levels were measured using Corticosterone ELISA kit (Enzo, ADI-900-097) according to the manufacturer's instructions. Kits used to measure alanine transaminase (EALT-100) and aspartate transaminase (EASTR-100) were purchased from Bioassay Systems. The bilirubin assay kit (MAK126) was purchased from Sigma Aldrich.
# [2] = tested on: RAW 264.7 cells; test: TUNEL assay in RAW 264.7 cells; assay type: cell-based, mouse; details: RAW 264.7, 10 μM, 48 h
# Experimental: For TET3 expression restoration experiments, cells seeded in 24-well plates were infected with Ad-GFP or Ad-TET3 at 4000 gc/cell. Following 16 h of infection, vehicle or Bobcat339 were added at a final concentration of 10 μM. Protein and RNA were isolated 48 hours later and analyzed.
# These were performed using the In Situ Cell Death Detection Kit (Sigma Aldrich, 12156792910). Briefly, cells were fixed with 4% paraformaldehyde in PBS for 1 h at RT and rinsed with PBS, followed by permeabilization with 0.1% Triton X-100 in 0.1% sodium citrate for 2 min on ice. TUNEL reaction mixture was added and incubation was carried out at 37 °C for 60 min. DAPI was added to counter-stain the cells for 1 min. The slides were coverslipped and scoped using a Keyence BZ-X700 fluorescence microscope.
# [3] = tested on: TGF-β1, IL-1β, and IL-6; test: TGF-β1, IL-1β and IL-6 expression in human MDMs; assay type: cell-based; details: TGF-β1-treated MDMs
# Text: Next, the studies examined effects of TET3 knockdown on expression of TGF-β1, IL-1β, and IL-6 in human MDMs. TGF-β1 has been mechanistically linked to the pathogenesis NSCLC, endometriosis, and NASH (Saito et al., 2018, Int J Mol Sci, 19; Young et al., 2017, Hum Reprod Update, 23:548-559; Cai et al., 2020, Cell Metab, 31:406-421; Baba et al., 2022, Front Pharmacol, 13:791272). It is also an important factor in the conditioned media responsible for inducing TET3 overexpression (FIG. 24H, FIG. 24J, and FIG. 24K through FIG. 24M). Therefore, MDMs were treated with TGF-β1 to mimic microenvironment-induced TET3 overexpression, followed by siRNA transfection and gene expression analyses. […] ELISA was not used to measure TGF-β1 because the transfection experiments were performed in the presence of exogenous TGF-β1. […]
# Proinflammatory activation of peritoneal macrophages and MDMs was achieved by treatment with a combination of 10 ng/mL of LPS (Invitrogen, 00-4976-93) and 20 ng/mL of IFN-γ (R&D Systems, 485-MI-100). IL-1β and IL-6 protein levels in the supernatant of cultured mouse peritoneal macrophages were measured using ELISA kits (R&D Systems, MLB00C and M6000B-1). […]
# IL-1β protein level of cell lysates and IL-6 protein level of cell supernatants were determined using the kits (Elabscience, E-EL-H0149c and E-EL-H6165, respectively) according to the manufacturer's protocols. […]
# [4] = tested on: Bcl2l11, Bid and Pmaip1; test: Pro-apoptosis gene expression in mouse peritoneal macrophages; assay type: cell-based; details: TGF-b1 primed mouse peritoneal macrophages, 10 μM, 48 h
# Experimental: For cultured mouse peritoneal macrophages, cells were primed with 30 ng/ml of TGF-β1 (R&D Systems, 7666-MB0-005) for 48 h (to increase TET3 expression) before Bobcat339 treatment. Bobcat339 (or DMSO) was added at a final concentration of 10 μM, followed by RNA and protein extraction at time points indicated in the figure legends.
# Total RNAs were extracted from cells using PureLink RNA Mini Kit. 0.5-1 μg total RNA was reverse transcribed to cDNA in a reaction volume of 20 μL using PrimeScript RT Reagent Kit. Real-time quantitative PCR was performed in a 15 μL reaction volume containing 0.5-1 μL of cDNA using SsoAdvanced Universal SYBR Green Supermix in a Bio-Rad iCycler. Gene expression levels were normalized against RPLP0.
smiles,measurement,setting,value
"Nc1nc(=O)n(-c2cccc(-c3ccccc3)c2)cc1Cl [Bobcat339, 4-Amino-1-[1,1′-biphenyl]-3-yl-5-chloro-2(1H)-pyrimidinone]",tolerability,[1]; 3-weeks of once-a-week i.p. injection,well tolerated
same,liver toxicity,[1]; three weeks of once-a-week i.p. Bobcat339,no evidence of liver toxicity; also recorded: no liver toxicity has been detected
same,apoptosis (TUNEL),[2],induced apoptosis; also recorded: a significant increase in apoptotic cell death
same,apoptosis (TUNEL),[2]; with Ad-TET3,reversed by overexpression of TET3; also recorded: not seen when TET3 was overexpressed
same,"TGF-β1, IL-1β, and IL-6 expression",[3],able to recapitulate these effects on all three factors
same,"Bcl2l11, Bid and Pmaip1 expression",[4],an upregulation of all three pro-apoptosis genes
